Measurements: patent publication US20120077883A1, “TREATMENT OF TINNITUS AND ASSOCIATED AUDITORY DYSFUNCTIONS” (priority 2009, published 2012)
Read-outs that look alike come from different tables or passages of the source.

Key:
[1] = test system: subjects with tinnitus
From the text: Four selected outcome variables were used in this preliminary analysis: Global improvement (GI), Tinnitus Handicap Inventory (THI) and Tinnitus Impairment Questionnaire (TBF 12) questionnaires and Minimum Masking Levels (MML). The changes on the outcome variables were obtained by subtracting week 12's scores from the screening scores. The presence of a negative result means a decrease on values.
In Table 2 the changes on outcome variables are listed by Global Improvement (GI) classification, as follows: GI 1=much better; 2=better; 3=slightly better; 4=no change; 5=slightly worse; 6=worse; 7=much worse; THI: Tinnitus Handicap Inventory, TBF 12: Tinnitus Impairment Questionnaire; MML: minimal masking levels, measured in dB HL (Hearing Level).
Four different criteria were established to determine whether a subject responded or not to treatment (see Table 3).

[2] = test system: fibromyalgia patients; conditions: 10 to 40 mg over a 12 week period; cited from earlier work
[3] = Criteria 1: improvement on GI, 15 subjects
[4] = Criteria 2: Criteria 1 + decrease on THI
[5] = Criteria 3: Criteria 2 + decrease on TBF 12
[6] = Criteria 4: Criteria 3 + decrease on MML

Q: Which results are given for `CN(C)CCC=C1c2ccccc2C=Cc2ccccc21` [Cyclobenzaprine]?
A: Most frequent side effects ([1]; 15 subjects, oral 15-30 mg/day): dry mouth and constipation; Non responders % ([1]; Criteria 1: improvement on GI): 26.7%; Non responders n ([1]; Criteria 1: improvement on GI): 4; Responders % [1, 3]: 73.3%; Responders n [1, 3]: 11; Non responders % [1, 4]: 26.4%; Non responders n [1, 4]: 4; Responders % [1, 4]: 73.3%; Responders n [1, 4]: 11; Non responders % [1, 5]: 33.3%; Non responders n [1, 5]: 5; Responders % [1, 5]: 66.6%; Responders n [1, 5]: 10; Non responders % [1, 6]: 46.7%; Non responders n [1, 6]: 7; Responders % [1, 6]: 53.3%; Responders n [1, 6]: 8; Subjects Better or Much Better on GI ([1]; FIG. 1, 15 subjects): 8 subjects; Tolerability ([1]; common side effects like constipation and dry mouth): tolerated well by most subjects; Sleep and muscle relaxation ([1]; described by many patients): Improvement on sleep and muscle relaxation; Subjects with changes on tinnitus pitch ([1]; human, in vivo): 5 out of 15 subjects; Side effect that led one subject to interrupt the study ([1]; one subject, week 8): severe constipation; Results in tinnitus at a dosage of 30 mg/day ([1]; oral, 30 mg/day): Excellent results; Tinnitus change noticed where MML was not possible to measure ([1]; subject 3, intermittent tinnitus): change on intensity and less episodes; Progression of Minimum Masking Levels (MML) during the tests ([1]; subjects 4, 8, 9, 10 and 11, FIGS. 2-6): progressive reduction; Effect on tinnitus severity and tinnitus loudness ([1]; tested subjects): positive effect; Tinnitus after treatment was weaned off ([1]; weaned off after 12 weeks): got worse in some patients; Quality of sleep and pain score [2]: significantly improved; Total number of tender points and muscle tightness [2]: reduction
